According to patent publication US8946439B2, “Amide compounds, compositions and uses thereof” (Evotec AG, priority 2008, dated 2015):
pIC50: −log10 of the molar value. Where two headings read alike, the source gives them in different places.

How the values were obtained:
hP2X2/3H = target: T1, hP2X2/3H (Homo sapiens, UniProt P56373+Q9UBL9); assay: Calcium uptake assay (P2X antagonist assay), P2X2/3 heteromer; type: cell-based; details: hP2X2/3H; for IC50: calcium uptake assay, read-out: IC50 hP2X2/3H (nM), Ca Influx; for pIC50: Ca influx (calcium uptake assay), read-out: IC50 hP2X2/3H
T1 construct: expressed in transfected cells; host or cells: e.g. HEK293 or 1321N1
T1 sequence (Q9UBL9 1-471): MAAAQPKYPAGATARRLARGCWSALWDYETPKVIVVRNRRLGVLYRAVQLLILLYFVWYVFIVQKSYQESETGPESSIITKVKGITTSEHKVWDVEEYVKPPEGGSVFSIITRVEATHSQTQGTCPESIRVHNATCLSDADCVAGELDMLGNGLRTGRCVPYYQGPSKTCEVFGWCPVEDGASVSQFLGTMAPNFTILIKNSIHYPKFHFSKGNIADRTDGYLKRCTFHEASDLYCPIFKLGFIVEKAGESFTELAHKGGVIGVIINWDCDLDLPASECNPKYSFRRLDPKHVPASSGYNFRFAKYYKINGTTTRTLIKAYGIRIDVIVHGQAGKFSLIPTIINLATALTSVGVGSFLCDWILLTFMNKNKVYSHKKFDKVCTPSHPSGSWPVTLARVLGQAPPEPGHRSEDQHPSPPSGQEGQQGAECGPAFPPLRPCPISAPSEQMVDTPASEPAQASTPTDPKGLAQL
T1 sequence (P56373 1-397): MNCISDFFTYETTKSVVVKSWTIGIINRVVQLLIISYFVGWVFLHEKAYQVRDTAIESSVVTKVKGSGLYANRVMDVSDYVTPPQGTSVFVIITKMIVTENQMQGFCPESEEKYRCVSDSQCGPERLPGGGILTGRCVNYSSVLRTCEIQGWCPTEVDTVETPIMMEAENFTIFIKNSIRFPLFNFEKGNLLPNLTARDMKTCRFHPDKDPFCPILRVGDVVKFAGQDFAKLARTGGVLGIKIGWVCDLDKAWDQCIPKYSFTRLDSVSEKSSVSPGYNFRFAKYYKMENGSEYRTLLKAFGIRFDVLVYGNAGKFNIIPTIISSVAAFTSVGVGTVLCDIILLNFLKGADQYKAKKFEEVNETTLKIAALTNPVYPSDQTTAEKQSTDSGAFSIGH
Description: (§1) The human P2X2/3 chimera clone is created as described by Neelands et al, and then cloned into an expression vector as above. Receptors are expressed in cells (e.g., HEK293 or 1321N1 (obtained from the ECACC)) via transient transfection using standard lipid mediated transfection, or by creation of stable transfectants for each receptor. For expression of the P2X2/3 heteromeric receptor, the P2X3 expression vector is stably transfected into a cell line already stably expressing P2X2. P2X2/3 heteromer function is isolated using pharmacological methods. Cell lines are maintained in DMEM+5% Glutamax, the appropriate level of selective antibiotic, and 10% heat inactivated FBS.
(§2) Functional activity of compounds at the P2X receptor is determined by measuring their ability to inhibit agonist-induced calcium influx. Compounds are tested for antagonist activity against the P2X2/3 chimera, the P2X3 homomer, or the P2X2/3 heteromer. At the start of each screening day, the agonist EC50 is determined. Compound % inhibition or IC50s are subsequently determined using a predetermined agonist concentration (EC50-90 depending on cell line) as a stimulus. The agonists used are αβMeATP, ATP, or other ATP analogs. Compounds may be tested at concentrations ranging from 1 pM to 10 μM.
(§3) To test for antagonist activity, cells expressing the appropriate receptor are seeded onto 96 or 384 well plates 18-24 hours prior to assay. […] Plates are incubated at 37° C. and then equilibrated at room temperature. Antagonism of agonist-induced calcium influx is measured using a fluorescent imaging plate reader (e.g. FLIPR^TETRA, Molecular Devices, Sunnyvale, Calif.). The assay comprises two stages: a pre-treatment phase followed by a treatment phase. Compounds may be tested as follows: For the pre-treatment phase, 50 μL of 3× concentration of test compound in HBSS is added to cells containing […], of dye loading media to achieve a final concentration of 1× test compound. For the treatment phase, at a set interval after pre-treatment (1-30 minutes), 50 μL of 1× test compound plus 4× agonist solution is added, resulting in a final concentration of 1× compound and 1× agonist. […] Responses are measured as (peak fluorescence after agonist addition) minus (baseline fluorescence prior to treatment). Percent inhibition is calculated as follows:
(§4) [formula] IC50 values are determined by analyzing dose response data in a 4 parameter logistic fit using GraphPad Prizm.

hP2X3 = target: T2, hP2X3 (Homo sapiens, UniProt P56373); assay: Calcium uptake assay (P2X antagonist assay), P2X3 homomer; type: cell-based; details: hP2X3; for IC50: calcium uptake assay, read-out: IC50 hP2X3 (nM), Ca Influx; for pIC50: Ca influx (calcium uptake assay), read-out: IC50 hP2X3
T2 construct: expressed in transfected cells; host or cells: e.g. HEK293 or 1321N1
T2 sequence (P56373 1-397): T1 sequence (P56373 1-397)
Description: as §1, §2, §3, §4

Compound | IC50 (hP2X2/3H) [nM] | IC50 (hP2X3) [nM] | pIC50 (hP2X2/3H) | pIC50 (hP2X3)
COc1ncc(CNC(=O)c2cc(C(=O)N3CCCC3)cc(-c3ccc(C)cc3)c2)c(N)n1 [Compound 79] | 501 to 1000 | 100 to 500 | – | –
Cc1ccc(-c2cc(C(=O)NCc3ccc(C)nc3)cc(C(=O)N(C)[C@@H]3CCNC3)c2)cc1 [Compound 165, (R)—N3,4′-Dimethyl-N5-((6-methylpyridin-3-yl)methyl)-N3-(pyrrolidin-3-yl)biphenyl-3,5-dicarboxamide] | 501 to 1000 | 100 to 500 | – | –
Cc1ccc(-c2cc(C(=O)NCc3ccc(Cl)c(S(=O)(=O)NC4CC4)c3)cc(C(=O)N3CCCC3)c2)cc1 [Compound 73, N-(4-Chloro-3-(N-cyclopropylsulfamoyl)benzyl)-4′-methyl-5-(pyrrolidine-1-carbonyl)biphenyl-3-carboxamide] | 501 to 1000 | 100 to 500 | – | –
Cc1ccc(-c2cc(C(=O)NCc3ccc(C)nc3)cc(C(O)CN3CCN(C)CC3)c2)cc1 (centres unmarked) [Compound 366] | – | – | 6.00 to 6.30 | > 7.00
Cc1ccc(-c2cc(OCCO)cc(C(=O)N[C@H](C)c3ccc(C)nc3)c2)cc1 [Compound 302] | – | – | > 7.00 | > 7.00
CCN(CC)C(=O)c1cc(C(=O)NCc2cnc(C)nc2)cc(-c2ccc(C)cc2)c1 [Compound 170] | 100 to 500 | < 100 | – | –
Cc1ccc(-c2cc(OCCO)cc(C(=O)N[C@H](C)c3ccc(C)nc3)c2)nc1 [Compound 329] | – | – | 6.30 to 7.00 | > 7.00
Cc1ncc(CNC(=O)c2cc(C(=O)N3CCCC3)cc(-c3ccc(F)cn3)c2)cn1 [Compound 99] | > 1000 | > 1000 | – | –
Cc1ccc(CNC(=O)c2cc(-c3ccc(Cl)c(F)c3)cc(S(C)(=O)=O)c2)cn1 [Compound 136] | > 1000 | 501 to 1000 | – | –
Cc1ccc(-c2cc(C(=O)N[C@H](C)c3cnn(CC(F)(F)F)c3C)cc(C(=O)N3CCCC3)c2)cc1 [Compound 117] | > 1000 | 501 to 1000 | – | –
COc1ncc([C@@H](C)NC(=O)c2cc(C(=O)N3CCC3)cc(-c3ccc(C)cc3)c2)cn1 [Compound 77] | < 100 | < 100 | – | –
COC1CCN(C(=O)c2cc(C(=O)NCc3cnc(C)nc3)cc(-c3ccc(C)cc3)c2)C1 (centres unmarked) [Compound 32] | < 100 | < 100 | – | –
Cc1ccc(-c2cc(OC3COCC3O)cc(C(=O)N[C@H](C)c3ccc(C)nc3)c2)cc1 (stereo partly drawn) [Compound 336, 5-(4-Hydroxytetrahydrofuran-3-yloxy)-4′-methyl-N—((R)-1-(6-methylpyridin-3-yl)ethyl)biphenyl-3-carboxamide] | – | – | > 7.00 | > 7.00
Cc1ccc(-c2cc(C(=O)NCc3ccc(C)nc3)cc(C(=O)N3CC[C@@H](O)C3)c2)nc1 [Compound 179] | < 100 | < 100 | – | –
Cc1ccc(-c2cc(C(=O)O)cc(C(=O)N[C@@H](C)CO)c2)cc1 [Compound 4] | > 1000 | > 1000 | – | –
Cc1ccc(-c2cc(C(=O)NCc3ccc(C(F)(F)F)nc3)cc(C(=O)N3CC(O)C3)c2)c(C#N)c1 [Compound 64] | < 100 | < 100 | – | –
COCC(CO)Oc1cc(C(=O)N[C@H](C)c2ccc(C)nc2)cc(-c2ccc(C)cc2C#N)c1 (some centres unmarked) [Compound 378] | – | – | > 7.00 | > 7.00
Cc1ccc(-c2cc(C(=O)N[C@H](C)c3cnc(C)c(Cl)c3)cc(C(=O)N3CCCC3)c2)cc1 [Compound 104] | 100 to 500 | < 100 | – | –
COCCOc1cc(C(=O)N[C@H](C)c2cnc(C)nc2)cc(-c2ccc(C)cc2)c1 [Compound 251] | – | – | > 7.00 | > 7.00

Compound | IC50 (hP2X2/3H) [nM] | IC50 (hP2X3) [nM] | pIC50 (hP2X2/3H) | pIC50 (hP2X3)
Cc1ccc(-c2cc(C(=O)N[C@H](CCO)c3ccc(C(F)(F)F)nc3)cc(S(C)(=O)=O)c2)cc1 [Compound 223] | – | – | 6.30 to 7.00 | > 7.00
Cc1ccc(-c2cc(C(=O)N[C@H](C)c3cnn(C)c3C)cc(C(=O)N3CCCC3)c2)cc1 [Compound 109] | 501 to 1000 | 100 to 500 | – | –
Cc1ccc(-c2cc(C(=O)N[C@H](C)c3ccc(C)nc3)cc(C(=O)N3CCN4CCCC4C3)c2)cc1 (some centres unmarked) [Compound 192] | < 100 | < 100 | – | –
CCC(O)c1cc(C(=O)N[C@H](C)c2cnc(C)nc2)cc(-c2ccc(C)cc2C#N)c1 (some centres unmarked) [Compound 396] | – | – | > 7.00 | > 7.00
Cc1ccc(-c2cc(Oc3ccccn3)cc(C(=O)N[C@H](C)c3cnc(C)nc3)c2)nc1 [Compound 270] | – | – | > 7.00 | > 7.00
Cc1ccc(-c2cc(C(=O)N[C@H](CO)c3cnc(C)nc3)cc(C(=O)N3CCCC3)c2)cc1 [Compound 96] | < 100 | < 100 | – | –
Cc1ccc(-c2cc(C(=O)NCc3ccc(C)nc3)cc(C(O)CN3CCOCC3CO)c2)cc1 (centres unmarked) [Compound 390] | – | – | > 7.00 | > 7.00
COCCOc1cc(C(=O)N[C@H](C)c2ccc(C)nc2)cc(-c2ccc(C)cc2C#N)c1 [Compound 252] | – | – | > 7.00 | > 7.00
Cc1ccc(-c2cc(C(=O)NC(C)c3cnccn3)cc(C(=O)N(C)CC(C)C)c2)cc1 (centres unmarked) [Compound 8, N3-Isobutyl-N3,4′-dimethyl-N-5-(1-(pyrazin-2-yl)ethyl)biphenyl-3,5-dicarboxamide] | 100 to 500 | < 100 | – | –
Cc1ccc(-c2cc(OC3COCC3O)cc(C(=O)N[C@H](C)c3ccc(C)nc3)c2)c(C#N)c1 (some centres unmarked) [Compound 337] | – | – | > 7.00 | > 7.00
COCC(C)Oc1cc(C(=O)N[C@H](C)c2ccc(C)nc2)cc(-c2ccc(C)cn2)c1 (some centres unmarked) [Compound 328] | – | – | > 7.00 | > 7.00
Cc1ccc(-c2cc(C(=O)NCc3ccc(C)nc3)cc(C(=O)N3CCCC3)c2)c(C#N)c1 [Compound 61] | < 100 | < 100 | – | –
Cc1ccc(-c2cc(C(=O)NCc3ccc(C)[n+]([O-])c3)cc(C(=O)N3CCCC3)c2)cc1 [Compound 224, 2-Methyl-5-((4′-methyl-5-(pyrrolidine-1-carbonyl)biphenyl-3-ylcarboxamido)methyl)pyridine 1-oxide] | – | – | > 7.00 | > 7.00
Cc1ccc(-c2cc(Oc3ncccn3)cc(C(=O)N[C@H](C)c3cnc(C)nc3)c2)cc1 [Compound 235] | – | – | 6.30 to 7.00 | > 7.00
Cc1ccc(-c2cc(C(=O)NC(C)c3ccc(C)nc3)cc(C(=O)N3CCCC3)c2)cc1 (centres unmarked) [Compound 103] | < 100 | < 100 | – | –
CCS(=O)(=O)c1cc(C(=O)NCc2ccc(C)nc2)cc(-c2ccc(C)cc2)c1 [Compound 211] | – | – | > 7.00 | > 7.00
Cc1ccc(-c2cc(OCC(O)CO)cc(C(=O)N[C@H](C)c3ccc(C)nc3)c2)nc1 (some centres unmarked) [Compound 344] | – | – | 6.30 to 7.00 | > 7.00
Cc1ccc(-c2cc(C(=O)NCc3ccc(C)[n+]([O-])c3)cc(S(C)(=O)=O)c2)cc1 [Compound 256, 2-Methyl-5-((4′-methyl-5-(methylsulfonyl)biphenyl-3-ylcarboxamido)methyl)pyridine 1-oxide] | – | – | > 7.00 | > 7.00
